From patent US8937048B2, “Anti-angiogenic compounds” (Covx Technologies Ireland, Limited, priority 2008, dated 2015)
Blank lines part the entries; values can stand above or below the compound they belong to.

Assays:
[1] = biological target: T1, human angiopoietin-2 protein (Homo sapiens, UniProt O15123); assay: Ang2 competitive ELISA (Ang-2 coated, Tie-2-Fc competition); assay type: binding
T1 construct: purchased R&D Systems
T1 sequence (O15123 19-496): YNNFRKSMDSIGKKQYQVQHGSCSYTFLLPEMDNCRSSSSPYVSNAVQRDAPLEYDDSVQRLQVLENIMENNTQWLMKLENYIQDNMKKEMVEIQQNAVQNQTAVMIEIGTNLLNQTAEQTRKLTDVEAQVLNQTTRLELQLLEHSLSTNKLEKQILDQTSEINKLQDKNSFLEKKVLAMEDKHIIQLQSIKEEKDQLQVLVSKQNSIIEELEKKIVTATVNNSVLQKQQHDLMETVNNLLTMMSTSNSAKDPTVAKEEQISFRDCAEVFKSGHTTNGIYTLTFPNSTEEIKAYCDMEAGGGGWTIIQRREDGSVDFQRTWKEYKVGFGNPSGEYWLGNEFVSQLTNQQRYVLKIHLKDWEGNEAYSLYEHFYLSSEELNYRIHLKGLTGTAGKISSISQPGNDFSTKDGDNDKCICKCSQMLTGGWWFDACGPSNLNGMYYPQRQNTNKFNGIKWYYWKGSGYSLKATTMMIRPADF
Protocol: The ability of Ang2 binding compounds to interact with Ang2 was measured by competition with Tie-2. These tests were described in US2008166364 (and also in PCT/IE2007/000110), whose contents are herein incorporated by reference in their entirety. In particular, those portions of PCT/IE2007/000110 and US2008166364 detailing the advantages and disadvantages of various Ang2-binding peptides, and the advantages and disadvantages of covalently linking certain Ang2-binding peptides to catalytic antibodies (and those portions specifically relating to linking to h38C2), as well as the advantages and disadvantages of using specific residues of the respective Ang2-specific peptide as the linking residue (in this context, linking residue meaning the residue covalently linked to the linker (for example as used herein in Example 4)). For competitive ELISA, human angiopoietin-2 protein and Tie-2-Fc (R&D Systems) were reconstituted without carrier protein. Mouse anti-human Tie-2 (Pharmingen) was used as the primary antibody and goat anti-mouse-IgG 1-HRP (Pierce) was used as the secondary antibody. TMB substrate from Pierce was used.
High-binding half-well plates were coated with Ang-2 (100 ng/well) in 50 W PBS and incubated at 4° C. overnight. […] Color development was monitored and stopped with 25 μl of 2 M H2SO4. OD450 nm with a correction wavelength of 540 nm was measured.

[2] = Mouse half-life (T 1/2) and screening half-life of Ang2 binding compounds; assay type: in vivo, Swiss Webster mice
Protocol: For “screening” T ½, test compounds were intravenously administered into male Swiss Webster mice. Blood samples were taken from 4 mice per time point via retroorbital sinus bleed at the following time points: 0.08, 5, and 32 hours. Blood level of test compounds were determined by ELISA. The data were reported as the percentage of test compounds at 32 hours versus 5 min. Normal T ½ was calculated in a similar fashion, after undergoing additional data analysis using WinNonlin version 4.1 (Pharsight Corporation). The data was fit to a model based upon the shape of the curve (i.e. a bi-exponential decline will be fit to a two compartment model, etc.) The criteria for best fit (i.e. lowest % CV) was based on iterative re-weighted least squares.

[3] = biological target: T1, human angiopoietin-2 protein; assay: Ang2 reverse competition ELISA (Tie-2-Fc coated); assay type: binding; settings: Table 5, column T; read-out: Ang-2 T IC50
Protocol: Plates were washed three times with washing buffer (0.1% Tween 20, PBS, pH 7.4) and blocked with Superblock, 150 μl/well at RT for 1 hour. Plates were washed three times. […] Plates were washed 3 times, and 50 W of streptavidin HRP (1:200 dilution in Superblock) was added at RT for 20 minutes. […] OD450 nm with a correction wavelength of 540 nm was measured.

IC50 ([1]; Table 6, column P): 36.4 nM
Compound: CSCC[C@H](NC(=O)[C@H](Cc1ccccc1)NC(=O)[C@H](CCC(N)=O)NC(=O)[C@H](CC(=O)O)NC(=O)[C@H](Cc1ccc(O)cc1)NC(=O)[C@H](CC(C)C)NC(=O)[C@@H](NC(=O)[C@H](CCCCN)NC(=O)[C@H](CC(=O)O)NC(=O)[C@H](CC(C)C)NC(=O)[C@H](CCC(=O)O)NC(=O)[C@H](CC(=O)O)NC(=O)[C@H](CC(C)C)NC(=O)[C@@H]1CCCN1C(=O)[C@H](CCC(N)=O)NC(=O)[C@H](Cc1ccc(O)cc1)NC(=O)[C@H](CCCCN)NC(=O)[C@H](CCC(N)=O)NC(C)=O)[C@@H](C)O)C(=O)N[C@@H](CC(C)C)C(=O)N[C@@H](CCC(N)=O)C(=O)N[C@@H](CCC(N)=O)C(=O)NCC(N)=O [Compound 4021]

Compound: CSCC[C@H](NC(=O)[C@H](Cc1ccccc1)NC(=O)[C@H](CCC(N)=O)NC(=O)[C@H](CC(=O)O)NC(=O)[C@H](Cc1ccc(O)cc1)NC(=O)[C@H](CC(C)C)NC(=O)[C@@H](NC(=O)[C@H](CCCCNC(=O)COCC(=O)Nc1ccc(CCC(=O)N2CCC2=O)cc1)NC(=O)[C@H](CC(=O)O)NC(=O)[C@H](CC(C)C)NC(=O)[C@H](CCC(=O)O)NC(=O)[C@H](CC(=O)O)NC(=O)[C@H](CC(C)C)NC(=O)[C@@H]1CCCN1C(=O)[C@H](CCC(N)=O)NC(=O)[C@H](Cc1ccc(O)cc1)NC(=O)[C@H](CCCCNC(C)=O)NC(=O)[C@H](CCC(N)=O)NC(=O)CCOCCOCCNC(C)=O)[C@@H](C)O)C(=O)N[C@@H](CC(C)C)C(=O)N[C@@H](CCC(N)=O)C(=O)N[C@@H](CCC(N)=O)C(=O)NCC(N)=O [Compound 4052, (Amido 2-PEG)QKacY QPL DEL DK(0P)T LYD QFMLQQ G]
half-life ([2]; mouse, in vivo, Table 5, screening half life (in parentheses), shorter test period, read-out: T ½ (Sc) hours, screening half life): 31 h

IC50 ([1]; Table 5, column P): 17.4 nM | IC50 [3]: 207 nM
Compound: Q(Kac)Y QPL DEL DK(4P)T LYD QFM LQQ G [Compound 4024]
T ½ hours ([2]; Table 5, half-life (value not in parentheses)): 104 h | T ½ (Sc) hours, screening half life ([2]; Table 5, screening half life (in parentheses), shorter test period): (27) hours
